pIC50: −log10 of the molar value. Where “and” joins values, the source holds several entries; their conditions need not be identical. Equal values may be shown once.
Test system: MCF7 complex spheroid growth, % test/control
Assay: Anticancer human tumor MCF7 cell line growth inhibition [Asc];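 further: spheroids exposed to compounds for 7 days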;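 on viability, T/C: 100% = DMSO vehicle control wells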
Details: for viability, T/C: stronger effect = lower value
Summary of the method: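 Tumor cells were grown as complex spheroids with human endothelial cells (HUVEC) and human mesenchymal stem cells as stroma. Agents were tested alone and in combination, in half-log steps down from the clinical Cmax, or from 10 microM where Cmax was unknown.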

[1] = curve of first compound, second compound 0.00316 µM
[2] = curve of first compound, second compound 0.01 µM
[3] = curve of first compound, second compound 0.0316 µM
[4] = curve of first compound, second compound 0.1 µM
[5] = curve of first compound, second compound 0.316 µM
[6] = curve of first compound, second compound 1 µM
[7] = second compound 0.0316 µM, first compound 0.00316 µM
[8] = second compound 0.0316 µM, first compound 0.01 µM
[9] = second compound 0.0316 µM, first compound 0.0316 µM
[10] = second compound 0.0316 µM, first compound 0.1 µM
[11] = second compound 0.0316 µM, first compound 0.316 µM
[12] = second compound 0.0316 µM, first compound 1 µM
[13] = second compound 0.1 µM, first compound 0.00316 µM
[14] = second compound 0.1 µM, first compound 0.01 µM
[15] = second compound 0.1 µM, first compound 0.0316 µM
[16] = second compound 0.1 µM, first compound 0.1 µM
[17] = second compound 0.1 µM, first compound 0.316 µM
[18] = second compound 0.1 µM, first compound 1 µM
[19] = second compound 0.316 µM, first compound 0.00316 µM
[20] = second compound 0.316 µM, first compound 0.01 µM
[21] = second compound 0.316 µM, first compound 0.0316 µM
[22] = second compound 0.316 µM, first compound 0.1 µM
[23] = second compound 0.316 µM, first compound 0.316 µM
[24] = second compound 0.316 µM, first compound 1 µM
[25] = second compound 1 µM, first compound 0.00316 µM
[26] = second compound 1 µM, first compound 0.01 µM
[27] = second compound 1 µM, first compound 0.0316 µM
[28] = second compound 1 µM, first compound 0.1 µM
[29] = second compound 1 µM, first compound 0.316 µM
[30] = second compound 1 µM, first compound 1 µM

## CCN1C(C(=O)NC23CCC(C(=O)O)(CC2)CC3)C(c2cccc(Cl)c2F)C2(C(=O)Nc3cc(Cl)ccc32)C12CCCCC2 (stereo not given) + CNC(C)C(=O)NC1CN(S(=O)(=O)c2cccc(S(=O)(=O)N3CCC4CCC(C(=O)NC(c5ccccc5)c5ccccc5)N4C(=O)C(NC(=O)C(C)NC)C3)c2)CCC2CCC(C(=O)NC(c3ccccc3)c3ccccc3)N2C1=O
[1]
  pIC50: > 8.02
[2]
  pIC50: > 8.02
[3]
  pIC50: > 8.02
[4]
  pIC50: > 8.02
[5]
  pIC50: > 8.02
[6]
  pIC50: > 8.02
Second compound 0.00316 µM, first compound 0.00949 µM
  viability, T/C: 40.9%
Second compound 0.00316 µM, first compound 0.03 µM
  viability, T/C: 14.3%
Second compound 0.00316 µM, first compound 0.0949 µM
  viability, T/C: 10.8%
Second compound 0.00316 µM, first compound 0.3 µM
  viability, T/C: 11%
Second compound 0.00316 µM, first compound 0.949 µM
  viability, T/C: 8.86%
Second compound 0.00316 µM, first compound 3 µM
  viability, T/C: 5.04%
Second compound 0.01 µM, first compound 0.00949 µM
  viability, T/C: 11.4%
Second compound 0.01 µM, first compound 0.03 µM
  viability, T/C: 8.24%
Second compound 0.01 µM, first compound 0.0949 µM
  viability, T/C: 8.54%
Second compound 0.01 µM, first compound 0.3 µM
  viability, T/C: 5.55%
Second compound 0.01 µM, first compound 0.949 µM
  viability, T/C: 5.82%
Second compound 0.01 µM, first compound 3 µM
  viability, T/C: 5.04%
Second compound 0.0316 µM, first compound 0.00949 µM
  viability, T/C: 11.9%
Second compound 0.0316 µM, first compound 0.03 µM
  viability, T/C: 8.85%
Second compound 0.0316 µM, first compound 0.0949 µM
  viability, T/C: 5.62%
Second compound 0.0316 µM, first compound 0.3 µM
  viability, T/C: 5.69%
Second compound 0.0316 µM, first compound 0.949 µM
  viability, T/C: 4.2%
Second compound 0.0316 µM, first compound 3 µM
  viability, T/C: 5.94%
Second compound 0.1 µM, first compound 0.00949 µM
  viability, T/C: 12%
Second compound 0.1 µM, first compound 0.03 µM
  viability, T/C: 10.7%
Second compound 0.1 µM, first compound 0.0949 µM
  viability, T/C: 6.73%
Second compound 0.1 µM, first compound 0.3 µM
  viability, T/C: 6.23%
Second compound 0.1 µM, first compound 0.949 µM
  viability, T/C: 4.67%
Second compound 0.1 µM, first compound 3 µM
  viability, T/C: 5.57%
Second compound 0.316 µM, first compound 0.00949 µM
  viability, T/C: 12.5%
Second compound 0.316 µM, first compound 0.03 µM
  viability, T/C: 10.7%
Second compound 0.316 µM, first compound 0.0949 µM
  viability, T/C: 7.04%
Second compound 0.316 µM, first compound 0.3 µM
  viability, T/C: 5.56%
Second compound 0.316 µM, first compound 0.949 µM
  viability, T/C: 5.97%
Second compound 0.316 µM, first compound 3 µM
  viability, T/C: 6.29%
Second compound 1 µM, first compound 0.00949 µM
  viability, T/C: 11.2%
Second compound 1 µM, first compound 0.03 µM
  viability, T/C: 12.5%
Second compound 1 µM, first compound 0.0949 µM
  viability, T/C: 9.54%
Second compound 1 µM, first compound 0.3 µM
  viability, T/C: 5.59%
Second compound 1 µM, first compound 0.949 µM
  viability, T/C: 4.74%
Second compound 1 µM, first compound 3 µM
  viability, T/C: 6.71%

## CCN1CCN(Cc2ccc(Nc3ncc(F)c(-c4cc(F)c5nc(C)n(C(C)C)c5c4)n3)nc2)CC1 + Cc1c(S(C)(=O)=O)c(-c2cc(F)cc(N3CCN(c4ccc(NS(=O)(=O)c5ccc(NC(CCN6CCC(C(=O)OCCCP(=O)(O)O)CC6)CSc6ccccc6)c(S(=O)(=O)C(F)(F)F)c5)cc4)CC3)c2)c(-c2ccc(Cl)cc2)n1C(C)C
[3]
  pIC50: < 6.00
[4]
  pIC50: < 6.00
[5]
  pIC50: < 6.00
[6]
  pIC50: < 6.00
Curve of first compound, second compound 3.16 µM
  pIC50: < 6.00
Curve of first compound, second compound 10 µM
  pIC50: < 6.00
[7]
  viability, T/C: 101%
[8]
  viability, T/C: 96.7%
[9]
  viability, T/C: 106%
[10]
  viability, T/C: 95.6%
[11]
  viability, T/C: 91.4%
[12]
  viability, T/C: 72.8%
[13]
  viability, T/C: 92.8%
[14]
  viability, T/C: 86%
[15]
  viability, T/C: 86.3%
[16]
  viability, T/C: 85.2%
[17]
  viability, T/C: 101%
[18]
  viability, T/C: 87.3%
[19]
  viability, T/C: 100%
[20]
  viability, T/C: 94.2%
[21]
  viability, T/C: 98.8%
[22]
  viability, T/C: 95%
[23]
  viability, T/C: 94.6%
[24]
  viability, T/C: 69.1%
[25]
  viability, T/C: 91.6%
[26]
  viability, T/C: 98.9%
[27]
  viability, T/C: 79.5%
[28]
  viability, T/C: 88.4%
[29]
  viability, T/C: 103%
[30]
  viability, T/C: 69.2%
Second compound 3.16 µM, first compound 0.00316 µM
  viability, T/C: 90.2%
Second compound 3.16 µM, first compound 0.01 µM
  viability, T/C: 85.7%
Second compound 3.16 µM, first compound 0.0316 µM
  viability, T/C: 92.8%
Second compound 3.16 µM, first compound 0.1 µM
  viability, T/C: 88.5%
Second compound 3.16 µM, first compound 0.316 µM
  viability, T/C: 92.1%
Second compound 3.16 µM, first compound 1 µM
  viability, T/C: 73.1%
Second compound 10 µM, first compound 0.00316 µM
  viability, T/C: 136%
Second compound 10 µM, first compound 0.01 µM
  viability, T/C: 124%
Second compound 10 µM, first compound 0.0316 µM
  viability, T/C: 182%
Second compound 10 µM, first compound 0.1 µM
  viability, T/C: 134%
Second compound 10 µM, first compound 0.316 µM
  viability, T/C: 114%
Second compound 10 µM, first compound 1 µM
  viability, T/C: 61.6%

## CCN1CCN(Cc2ccc(Nc3ncc(F)c(-c4cc(F)c5nc(C)n(C(C)C)c5c4)n3)nc2)CC1 + CNC(C)C(=O)NC1CN(S(=O)(=O)c2cccc(S(=O)(=O)N3CCC4CCC(C(=O)NC(c5ccccc5)c5ccccc5)N4C(=O)C(NC(=O)C(C)NC)C3)c2)CCC2CCC(C(=O)NC(c3ccccc3)c3ccccc3)N2C1=O
[1]
  pIC50: > 8.50
[2]
  pIC50: > 8.50
[3]
  pIC50: > 8.50
[4]
  pIC50: > 8.50
[5]
  pIC50: > 8.50
[6]
  pIC50: > 8.50
Second compound 0.00316 µM, first compound 0.00316 µM
  viability, T/C: 30.3%
Second compound 0.00316 µM, first compound 0.01 µM
  viability, T/C: 32.9%
Second compound 0.00316 µM, first compound 0.0316 µM
  viability, T/C: 12.9%
Second compound 0.00316 µM, first compound 0.1 µM
  viability, T/C: 20.2%
Second compound 0.00316 µM, first compound 0.316 µM
  viability, T/C: 12.3%
Second compound 0.00316 µM, first compound 1 µM
  viability, T/C: 14.1%
Second compound 0.01 µM, first compound 0.00316 µM
  viability, T/C: 17.1%
Second compound 0.01 µM, first compound 0.01 µM
  viability, T/C: 10.8%
Second compound 0.01 µM, first compound 0.0316 µM
  viability, T/C: 10.1%
Second compound 0.01 µM, first compound 0.1 µM
  viability, T/C: 10.1%
Second compound 0.01 µM, first compound 0.316 µM
  viability, T/C: 10.5%
Second compound 0.01 µM, first compound 1 µM
  viability, T/C: 11.8%
[7]
  viability, T/C: 14.4%
[8]
  viability, T/C: 9.49%
[9]
  viability, T/C: 9.67%
[10]
  viability, T/C: 11.8%
[11]
  viability, T/C: 11.1%
[12]
  viability, T/C: 10.6%
[13]
  viability, T/C: 12.2%
[14]
  viability, T/C: 10.9%
[15]
  viability, T/C: 10.2%
[16]
  viability, T/C: 8.76%
[17]
  viability, T/C: 11.4%
[18]
  viability, T/C: 10%
[19]
  viability, T/C: 13.4%
[20]
  viability, T/C: 13.1%
[21]
  viability, T/C: 13.2%
[22]
  viability, T/C: 11.2%
[23]
  viability, T/C: 8.8%
[24]
  viability, T/C: 8.66%
[25]
  viability, T/C: 10.8%
[26]
  viability, T/C: 12%
[27]
  viability, T/C: 11.3%
[28]
  viability, T/C: 10.8%
[29]
  viability, T/C: 10.7%
[30]
  viability, T/C: 8.18%

## Cc1nc(N2CCC3(CC2)COC(C)C3N)c(CO)nc1Sc1ccnc(N)c1Cl (stereo not given)
Compound 0.00949 µM
  viability, T/C: 89.4% and 87.6% and 92.8%
Compound 0.03 µM
  viability, T/C: 89.1% and 113% and 107%
Compound 0.0949 µM
  viability, T/C: 86.5% and 90.9% and 95.4%
Compound 0.3 µM
  viability, T/C: 82.5% and 93.3% and 94.7%
Compound 0.949 µM
  viability, T/C: 16.5% and 27% and 73%
Compound 3 µM
  viability, T/C: 11.1% and 14.7% and 16.4%
Curve of compound
  pIC50: 6.28 and 6.20 and 5.82

## COc1c(OCCCN2CCOCC2)ccc2c3n(c(=NC(=O)c4cnc(N)nc4)nc12)CCN3
Compound 0.00316 µM
  viability, T/C: 79.3% and 87.5% and 83.6%
Compound 0.01 µM
  viability, T/C: 76.8% and 80.8% and 61.1%
Compound 0.0316 µM
  viability, T/C: 56.2% and 55.1% and 46.3%
Compound 0.1 µM
  viability, T/C: 29.5% and 33.3% and 43%
Compound 0.316 µM
  viability, T/C: 12.4% and 14.6% and 17.5%
Compound 1 µM
  viability, T/C: 8.01% and 9.89% and 10%
Curve of compound
  pIC50: 7.35 and 7.27 and 7.65
